{"source": "paper PMC10855781", "about": "(International Journal of Molecular Sciences, 2024)", "origin": "cited, not measured here", "key": {"[1]": {"test_system": "PANC-1 (human pancreas adenocarcinoma)", "conditions": "10 μM, 72 h treatment, ref [110]", "method": "(§1) We assessed a modified version of this peptide as a homing device, where Cys was replaced by Ser because the thiol group is not necessary to introduce an oxime linkage. […] Using this conjugate at 10 μM concentration, the cell viability of the PANC-1 cells was 0.1% after a 72 h treatment. In contrast, the cell viability of normal human dermal fibroblast (NHDF), a model of healthy cells, was roughly 75%, showing a significa ..."}, "[2]": {"test_system": "normal human dermal fibroblast (NHDF)", "conditions": "10 μM, 72 h treatment, ref [110]", "method": "as §1"}, "[3]": {"conditions": "lysosomal homogenate; Dau=Aoa-Gly-OH, Dau=Aoa-Gly-Phe-OH, H-Lys(Dau=Aoa)-OH; ref [110]"}, "PANC-1 tumor": {"test_system": "PANC-1 tumor", "conditions": "ref [110]; for tumor growth inhibition by tumor volume: eighteen treatments, day 74", "method": "The in vivo tumor growth inhibitory effect of the conjugate and free Dau was investigated on s.c.-developed PANC-1 tumor-bearing SCID female mice. The free drug was applied once a week at a maximum tolerated dose of 1 mg/kg body weight (three treatments), while the conjugate was administered, on average, three times per a week either at a 2 mg/kg or 10 mg/kg dose, calculated as per the Dau content (eighteen treatments altogether). The first treatment was given on day 10 after tumor inoculation. After the third treatment with free Dau, the animals lost 20% of their weight; therefore, the mice i ..."}, "[4]": {"test_system": "human breast adenocarcinoma (MCF-7)", "conditions": "ref [75]", "text": "Table 2 Comparative study of cytotoxic effects and cardiotoxicity elicited by selected GnRH-based anthracycline conjugates. | column: IC50 Values (μM)"}, "[5]": {"test_system": "human colorectal adenocarcinoma (HT-29)", "conditions": "Table 2; ref [75]", "text": "Table 2 Comparative study of cytotoxic effects and cardiotoxicity elicited by selected GnRH-based anthracycline conjugates. || Table 3 In vivo tumor growth inhibition of a few relevant Dau-GnRH-III conjugates. | column: Cytostatic Effect (IC50: μM) on HT-29 cells"}, "[6]": {"test_system": "Human cardiac myocytes (HCM)", "set-up": "key: 0: no cardiotoxicity; +: weak; ++: moderate; +++: strong cardiotoxicity", "conditions": "long-term (0–72 h) cytotoxic effect, impedimetric; ref [75]", "text": "Table 2 Comparative study of cytotoxic effects and cardiotoxicity elicited by selected GnRH-based anthracycline conjugates. | column: Cardiotoxicity || The main drug-related toxic side effect of anthracyclines is cardiotoxicity, leading to cardiomyopathy and heart failure. Comparative experiments to determine the cardiotoxicity of peptide–anthracycline conjugates with different linkages might be informative for the other conjugates with different types of drugs as well. For this purpose, human cardiomyocytes (HCM) and human umbilical vein endothelial cells (HUVEC) were used as models. The long-term (0–72 h) cytotoxic effect of sixteen GnRH-based conjugates containing Dox and Dau was determined by real-time impedimetric sensing using th ..."}, "[7]": {"test_system": "human umbilical vein endothelial cells (HUVEC)", "set-up": "key: 0: no cardiotoxicity; +: weak; ++: moderate; +++: strong cardiotoxicity", "conditions": "long-term (0–72 h) cytotoxic effect, impedimetric; ref [75]", "text": "Table 2 Comparative study of cytotoxic effects and cardiotoxicity elicited by selected GnRH-based anthracycline conjugates. | column: Cardiotoxicity"}, "lysosomal homogenate": {"test": "lysosomal homogenate", "conditions": "up to 72 h"}, "PC3 cancer cell lines": {"test_system": "PC3 cancer cell lines", "conditions": "PC3, 1.5 h incubation; concentration for internalization of 50% of the conjugate in living cells; ref [84]; read-out: cellular uptake (UC50)", "text": "(§2) Table 4 In vitro and in vivo activity of bombesin analog–daunomycin conjugates on PC3 cells. | column: L1: Dau=Aoa-LRRY- […]le-NH2; L5: Dau=Aoa-LRRY- fQWAVGHStaL-NH2; L6: Dau=Aoa-LRRY- fQWAVβAlaHStaNle-NH2"}, "PC3 cells": {"test_system": "PC3 cells", "conditions": "ref [84], read-out: cytostatic effect (IC50)", "text": "as §2"}, "[8]": {"test_system": "different cancer cell lines, e.g. HT-29", "conditions": "ref [18]", "text": "In our group, we synthesized conjugates based on a heptapeptide (VHLGYAT) selected by Zhang et al. and tested them on HT-29 human colon adenocarcinoma. Since sequence modification may result in different oxime-linked Dau-amino acid fragments, a cathepsin B- labile spacer was incorporated to the N-terminal of the homing peptide. From the parent compound (Dau=Aoa-LRRY-VHLGYAT-NH2), the potential positions that can be substituted were selected using Ala-scan."}, "HT-29 tumor": {"test_system": "HT-29 tumor", "conditions": "mouse, in vivo", "method": "In our group, we synthesized conjugates based on a heptapeptide (VHLGYAT) selected by Zhang et al. and tested them on HT-29 human colon adenocarcinoma. Since sequence modification may result in different oxime-linked Dau-amino acid fragments, a cathepsin B- labile spacer was incorporated to the N-terminal of the homing peptide. From the parent compound (Dau=Aoa-LRRY-VHLGYAT-NH2), the potential positions that can be substituted were selected using Ala-scan. […] Statistical analysis was performed by Mann-Whitney test. *, ** and *** mean significant at p < 0.05, p < 0.01 and p < 0.001, respectively. Adapted with permission from ref. [18]. 2019, Elsevier. TEXT PRINTED IN THE PICTURE: (a) Dau: Tumour weight (g): 16% | (a) Parent: Tumour weight (g): 35% | (a) G/F exchange: Tumour weight (g): 11% | (b) Dau: Liver weight (g): 72% | (b) Parent: Liver weight (g): 101% | (b) G/F exchange: Liver weight (g): 90% | (c) Dau: Prol ..."}, "[9]": {"test": "rat liver lysosomal homogenate", "conditions": "up to 6 h"}, "[10]": {"test_system": "PC-3 human prostatic adenocarcinoma", "set-up": "method as in PMID 36834815", "conditions": "s.c. PC-3, ref [84]", "text": "This 14-mer peptide (Glp-[…]NH2), first discovered in the skin of the frog Bombina bombina, is associated with the gastrin-releasing peptide (GRP) as a mammalian counterpart. The bombesin receptor family comprises neuromedin receptor B (NMB-R, or BB1), gastrin-releasing peptide receptor (GRP-R, or BB2) and bombesin receptor subtype 3 (BRS-3, or BB3). Among them, GRP-R has been the most investig ..."}}, "note": "Entries after “also recorded” stand apart in the source; their conditions may differ. Read-outs that look alike come from different tables or passages of the source.", "data": [{"compound": "Dau=Aoa-GFLG-K(Dau=Aoa)SKAAKN-OH [listing 1 of 2 here]", "values": [{"measurement": "cell viability", "setting": "[1]", "value": 0.1, "unit": "%"}, {"measurement": "cell viability", "setting": "[2]", "value": "roughly 75%"}, {"measurement": "time of release of three drug-containing metabolites", "setting": "[3]", "value": "≤ 72", "unit": "h"}, {"measurement": "tumor growth inhibition by tumor volume", "setting": "PANC-1 tumor; 2 mg/kg (Dau content)", "value": 14, "unit": "%"}, {"measurement": "tumor weight reduction", "setting": "PANC-1 tumor; 2 mg/kg (Dau content)", "value": 27.3, "unit": "%"}, {"measurement": "tumor growth inhibition by tumor volume", "setting": "PANC-1 tumor; 10 mg/kg (Dau content)", "value": 32.2, "unit": "%"}, {"measurement": "tumor weight reduction", "setting": "PANC-1 tumor; 10 mg/kg (Dau content)", "value": 30.4, "unit": "%"}, {"measurement": "toxic side effects", "setting": "PANC-1 tumor; 2 or 10 mg/kg Dau content", "value": "No toxic side effects"}, {"measurement": "highest tumor inhibition rate", "setting": "PANC-1 tumor; day 67, after 16 treatments, dose not stated", "value": 43, "unit": "%"}]}, {"compound": "COc1cccc2c1C(=O)c1c(O)c3c(c(O)c1C2=O)C[C@@](O)(C(=O)CO)C[C@@H]3O[C@H]1C[C@H](N)[C@H](O)[C@H](C)O1", "note": "[doxorubicin (Dox), doxorubicin]", "values": [{"measurement": "IC50", "setting": "[4]", "value": 0.1, "unit": "µM"}, {"measurement": "IC50", "setting": "[5]", "value": 0.1, "unit": "µM"}, {"measurement": "Cardiotoxicity, HCM", "setting": "[6]", "value": "+++"}, {"measurement": "Cardiotoxicity, HUVEC", "setting": "[7]", "value": "+++"}]}, {"compound": "Dau=Aoa-GFLG-K(Dau=Aoa)SKAAKN-OH [listing 2 of 2 here]", "values": [{"measurement": "fragment found", "setting": "lysosomal homogenate", "value": "Dau=Aoa-Gly-Phe-OH, within 72 h; also recorded: H-Lys(Dau=Aoa)-OH, within 72 h"}]}, {"compound": "Dau=Aoa-LRRY- QWAVGHLNle-NH2 [L1]", "values": [{"measurement": "EC50", "setting": "PC3 cancer cell lines", "value": 22.9, "unit": "µM"}, {"measurement": "IC50", "setting": "PC3 cells", "value": "4.38 ± 0.33", "unit": "µM"}]}, {"compound": "Dau=Aoa-LRRY-VHLFYAT-NH2", "values": [{"measurement": "in vitro cytostasis, times higher activity than the parent conjugate", "setting": "[8]; different cancer cell lines", "value": "2–5 times"}, {"measurement": "in vitro cytostasis, times higher activity than the parent conjugate", "setting": "[8]; on HT-29", "value": "up to 2.6 times"}, {"measurement": "Liver weight, percent label in Figure 5b", "setting": "HT-29 tumor", "value": 90, "unit": "%"}]}, {"compound": "Dau=Aoa-LRRY- QWAVGHLNle-NH2", "values": [{"measurement": "fragment found", "setting": "[9]", "value": "Dau=Aoa-Leu-OH, less than 30 min"}]}, {"compound": "Dau=Aoa-LRRY- fQWAVGHStaL-NH2", "values": [{"measurement": "fragment found", "setting": "[9]", "value": "Dau=Aoa-Leu-OH, less than 30 min"}]}, {"compound": "N-O-CH2-CO-TFFYGGSRGKRNNFKTEEY-CONH2", "values": [{"measurement": "fragment found", "setting": "lysosomal homogenate", "value": "Dau=Aoa-Thr-OH, major, within 1 h"}]}, {"compound": "NH2-TFFYGGSRGKRNNFKTEEY-CONH2", "values": [{"measurement": "fragment found", "setting": "lysosomal homogenate", "value": "H-Lys(Dau=Aoa)-OH, major, within 1 h"}]}, {"compound": "Dau=Aoa-LRRY- fQWAVβAlaHStaNle-NH2", "values": [{"measurement": "fragment found", "setting": "[9]", "value": "Dau=Aoa-Leu-OH, less than 30 min"}]}, {"compound": "Dau=Aoa-LRRY- fQWAVβAlaHStaNle-NH2 [L6]", "values": [{"measurement": "EC50", "setting": "PC3 cancer cell lines", "value": 16.1, "unit": "µM"}, {"measurement": "IC50", "setting": "PC3 cells", "value": "18 ± 3.01", "unit": "µM"}, {"measurement": "tumor volume inhibition", "setting": "[10]; i.p. 10 mg Dau-content/kg every fifth day from day 9, five treatments, day 33, Dau 1 mg/kg, terminated day 26", "value": 31.4, "unit": "%"}, {"measurement": "tumor weight inhibition", "setting": "[10]; i.p. 10 mg Dau-content/kg, five treatments, day 33", "value": 33.1, "unit": "%"}, {"measurement": "tumor DT enhancement", "setting": "[10]; tumor doubling time, 10 mg Dau-content/kg", "value": 11.5, "unit": "%"}]}]}
